Reference: PubChem BioAssay (NCI)
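Compound exposure: 48 hours, 5 concentrations, 96-well plates. Abbreviation: GI50, concentration required for 50% inhibition of growth. TGI is the concentration that stops growth completely.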

Key:
Assay in all cases: NCI anticancer screen, dose series, 48 h
COLO 205 colon = tested on: COLO 205 colon
SF-268 CNS = tested on: SF-268 CNS
NCI-H522 lung = tested on: NCI-H522 lung
UACC-62 melanoma = tested on: UACC-62 melanoma
U251 CNS = tested on: U251 CNS
OVCAR-5 ovarian = tested on: OVCAR-5 ovarian
CCRF-CEM leukemia = tested on: CCRF-CEM leukemia
A549 NSCLC = tested on: A549 NSCLC
BT-549 breast = tested on: BT-549 breast
HCT-116 colon = tested on: HCT-116 colon
SF-295 CNS = tested on: SF-295 CNS
SNB-75 CNS = tested on: SNB-75 CNS
SNB-19 CNS = tested on: SNB-19 CNS
SR leukemia = tested on: SR leukemia
NCI/ADR-RES ovarian = tested on: NCI/ADR-RES ovarian
DU-145 prostate = tested on: DU-145 prostate
MDA-MB-231 breast = tested on: MDA-MB-231 breast
SK-MEL-28 melanoma = tested on: SK-MEL-28 melanoma
NCI-H23 lung = tested on: NCI-H23 lung
T-47D breast = tested on: T-47D breast
MALME-3M melanoma = tested on: MALME-3M melanoma
HS 578T breast = tested on: HS 578T breast
TK-10 renal = tested on: TK-10 renal
OVCAR-3 ovarian = tested on: OVCAR-3 ovarian
SW-620 colon = tested on: SW-620 colon
RPMI-8226 leukemia = tested on: RPMI-8226 leukemia
KM12 colon = tested on: KM12 colon
SK-MEL-5 melanoma = tested on: SK-MEL-5 melanoma
SF-539 CNS = tested on: SF-539 CNS
HT29 colon = tested on: HT29 colon
UO-31 renal = tested on: UO-31 renal
SK-MEL-2 melanoma = tested on: SK-MEL-2 melanoma
HCC-2998 colon = tested on: HCC-2998 colon
CAKI-1 renal = tested on: CAKI-1 renal
786-0 renal = tested on: 786-0 renal
HL-60(TB) leukemia = tested on: HL-60(TB) leukemia
HOP-92 NSCLC = tested on: HOP-92 NSCLC
OVCAR-8 ovarian = tested on: OVCAR-8 ovarian
EKVX NSCLC = tested on: EKVX NSCLC
MDA-MB-435 = tested on: MDA-MB-435
HOP-62 NSCLC = tested on: HOP-62 NSCLC
MOLT-4 leukemia = tested on: MOLT-4 leukemia
SN12C renal = tested on: SN12C renal
PC-3 prostate = tested on: PC-3 prostate
LOX IMVI melanoma = tested on: LOX IMVI melanoma
A498 renal = tested on: A498 renal
NCI-H226 lung = tested on: NCI-H226 lung
MCF7 breast = tested on: MCF7 breast
K-562 leukemia = tested on: K-562 leukemia
OVCAR-4 ovarian = tested on: OVCAR-4 ovarian
HCT-15 colon = tested on: HCT-15 colon
ACHN renal = tested on: ACHN renal
SK-OV-3 ovarian = tested on: SK-OV-3 ovarian
UACC-257 melanoma = tested on: UACC-257 melanoma
NCI-H460 lung = tested on: NCI-H460 lung
RXF 393 renal = tested on: RXF 393 renal
M14 melanoma = tested on: M14 melanoma

COc1ccc(/C=C/C(=O)c2ccc(Nc3nc(Nc4ccc(F)cc4)nc(Nc4ccc(F)cc4)n3)cc2)cc1
GI50 (COLO 205 colon): 9.57 µM
TGI (COLO 205 colon): 29.6 µM
GI50 (SF-268 CNS): 22.5 µM
TGI (SF-268 CNS): 94.6 µM
GI50 (NCI-H522 lung): 8.89 µM
TGI (NCI-H522 lung): 24.9 µM
GI50 (UACC-62 melanoma): 29.9 µM
TGI (UACC-62 melanoma): > 100 µM
GI50 (U251 CNS): 16.7 µM
TGI (U251 CNS): 56.2 µM
GI50 (OVCAR-5 ovarian): 40.2 µM
TGI (OVCAR-5 ovarian): > 100 µM
GI50 (CCRF-CEM leukemia): 5.15 µM
TGI (CCRF-CEM leukemia): 48.2 µM
GI50 (A549 NSCLC): 10.1 µM
TGI (A549 NSCLC): 34 µM
GI50 (BT-549 breast): 14 µM
TGI (BT-549 breast): 36.4 µM
GI50 (HCT-116 colon): 4.82 µM
TGI (HCT-116 colon): 18.3 µM
GI50 (SF-295 CNS): 14.2 µM
TGI (SF-295 CNS): 42.7 µM
GI50 (SNB-75 CNS): 30.6 µM
TGI (SNB-75 CNS): > 100 µM
GI50 (SNB-19 CNS): 30.9 µM
TGI (SNB-19 CNS): > 100 µM
GI50 (SR leukemia): 4.66 µM
TGI (SR leukemia): 51.6 µM
GI50 (NCI/ADR-RES ovarian): 5.63 µM
TGI (NCI/ADR-RES ovarian): 33 µM
GI50 (DU-145 prostate): 40.2 µM
TGI (DU-145 prostate): > 100 µM
GI50 (MDA-MB-231 breast): 35.3 µM
TGI (MDA-MB-231 breast): > 100 µM
GI50 (SK-MEL-28 melanoma): 56.8 µM
TGI (SK-MEL-28 melanoma): > 100 µM
GI50 (NCI-H23 lung): 14.4 µM
TGI (NCI-H23 lung): 32.5 µM
GI50 (T-47D breast): 5.42 µM
TGI (T-47D breast): 52.5 µM
GI50 (MALME-3M melanoma): 8.94 µM
TGI (MALME-3M melanoma): 46.6 µM
GI50 (HS 578T breast): 14.4 µM
TGI (HS 578T breast): 59.6 µM
GI50 (TK-10 renal): 11.8 µM
TGI (TK-10 renal): 42.7 µM
GI50 (OVCAR-3 ovarian): 26.7 µM
TGI (OVCAR-3 ovarian): > 100 µM
GI50 (SW-620 colon): 19 µM
TGI (SW-620 colon): 82.1 µM
GI50 (RPMI-8226 leukemia): 6.66 µM
TGI (RPMI-8226 leukemia): > 100 µM
GI50 (KM12 colon): 7.62 µM
TGI (KM12 colon): 29.3 µM
GI50 (SK-MEL-5 melanoma): 3.51 µM
TGI (SK-MEL-5 melanoma): 18.5 µM
GI50 (SF-539 CNS): 23.2 µM
TGI (SF-539 CNS): 60.1 µM
GI50 (HT29 colon): 18.1 µM
TGI (HT29 colon): > 100 µM
GI50 (UO-31 renal): 10.2 µM
TGI (UO-31 renal): 31.9 µM
GI50 (SK-MEL-2 melanoma): 14.1 µM
TGI (SK-MEL-2 melanoma): 34.6 µM
GI50 (HCC-2998 colon): 14.1 µM
TGI (HCC-2998 colon): 53.8 µM
GI50 (CAKI-1 renal): 38.3 µM
TGI (CAKI-1 renal): > 100 µM
GI50 (786-0 renal): 6.03 µM
TGI (786-0 renal): 26.9 µM
GI50 (HL-60(TB) leukemia): 4.96 µM
TGI (HL-60(TB) leukemia): 30.5 µM
GI50 (HOP-92 NSCLC): 8.8 µM
TGI (HOP-92 NSCLC): 31.4 µM
GI50 (OVCAR-8 ovarian): 8.49 µM
TGI (OVCAR-8 ovarian): 30.1 µM
GI50 (EKVX NSCLC): 23.9 µM
TGI (EKVX NSCLC): > 100 µM
GI50 (MDA-MB-435): 5.8 µM
TGI (MDA-MB-435): 31.6 µM
GI50 (HOP-62 NSCLC): 13.1 µM
TGI (HOP-62 NSCLC): 30 µM
GI50 (MOLT-4 leukemia): 3.11 µM
TGI (MOLT-4 leukemia): 21.9 µM
GI50 (SN12C renal): 55.1 µM
TGI (SN12C renal): > 100 µM
GI50 (PC-3 prostate): 5.06 µM
TGI (PC-3 prostate): 21.4 µM
GI50 (LOX IMVI melanoma): 21.7 µM
TGI (LOX IMVI melanoma): 67.7 µM
GI50 (A498 renal): 11.8 µM
TGI (A498 renal): 28.2 µM
GI50 (NCI-H226 lung): 19.8 µM
TGI (NCI-H226 lung): 65.7 µM
GI50 (MCF7 breast): 5.59 µM
TGI (MCF7 breast): 34.3 µM
GI50 (K-562 leukemia): 4.07 µM
TGI (K-562 leukemia): > 100 µM
GI50 (OVCAR-4 ovarian): 27.4 µM
TGI (OVCAR-4 ovarian): > 100 µM
GI50 (HCT-15 colon): 14.4 µM
TGI (HCT-15 colon): > 100 µM
GI50 (ACHN renal): 30.4 µM
TGI (ACHN renal): > 100 µM
GI50 (SK-OV-3 ovarian): 17.1 µM
TGI (SK-OV-3 ovarian): 88.4 µM
GI50 (UACC-257 melanoma): 19 µM
TGI (UACC-257 melanoma): 76.4 µM
GI50 (NCI-H460 lung): 13 µM
TGI (NCI-H460 lung): 72.4 µM
GI50 (RXF 393 renal): 3.09 µM
TGI (RXF 393 renal): 14.2 µM
GI50 (M14 melanoma): 12.3 µM
TGI (M14 melanoma): 36.7 µM
